Measured values reported in patent US12558428B2, “Heterobifunctional compounds and their use in treating disease” (Halda Therapeutics OpCo, Inc., priority 2024, dated 2026).
Where two headings read alike, the source gives them in different places.

How the values were obtained:
Format in all cases: cell-based
[1] = tested on: T-Rex 293 cells having increased expression of estrogen receptor alpha protein; test: Cellular growth inhibition assay, T-Rex 293 cells, (+) doxycycline; conditions: T-REx-293, 72 h, 72 hours
In short: (§1)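 ERα overexpression was switched on by 3 ng/mL doxycycline in a stably transfected T-Rex 293 clone, while uninduced cells served as the comparison line. Proliferation over 72 h of compound treatment was assessed by ATP luminescence, and GI50 values came from four-parameter curves.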

[2] = tested on: MCF7 cells (ATCC #HTB-22); test: Cellular growth inhibition assay, MCF7 cells purchased from ATCC; conditions: Homo sapiens, MCF7, 144 h, Table 8-A; MCF7 cells purchased from ATCC; six days; CellTiter-Glo; read-out: GI50
In short: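 MCF7 cells in RPMI 1640 with 10% FBS and 0.2 U/ml insulin, seeded at 1,500 cells/well (ATCC) or 225 cells/well (ECACC). Compounds added 24 h later, then 6 days at 37° C. Viability by CellTiter-Glo 2.0 luminescence. GI50 from four-parameter fit.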

[3] = tested on: T-Rex 293 cells lacking increased expression of estrogen receptor alpha protein; test: Cellular growth inhibition assay, T-Rex 293 cells, (−) doxycycline; conditions: T-REx-293, 72 h, 72 hours
In short: as §1

[4] = T-Rex 293 cells with doxycycline-induced ERα expression, CellTiter-Glo 2.0, read-out: (+) Dox TRex ERa (GI50)
[5] = T-Rex 293 cells without doxycycline, CellTiter-Glo 2.0, read-out: (−) Dox TRex ERa (GI50)
[6] = Table 7-A, T-Rex 293 cells with doxycycline (increased ERα expression), CellTiter-Glo, read-out: (+) Dox GI50
[7] = Table 7-A, T-Rex 293 cells without doxycycline (lacking increased ERα expression), CellTiter-Glo, read-out: (−) Dox GI50

| GI50 [2] [nM] | SMILES | GI50 [1, 4] [nM] | GI50 [3, 5] [nM] | GI50 [1, 6] [nM] | GI50 [3, 7] [nM] |
| --- | --- | --- | --- | --- | --- |
| 50 to 500 | Cc1sc2c(c1C)C(c1ccc(N3CCC(O)(CN4CCN(c5ccc([C@H]6c7ccc(O)cc7CC[C@H]6c6ccc(F)cc6)cc5Cl)CC4)CC3)cc1)=N[C@@H](C)c1nnc(C)n1-2 [III-301] |  |  | 500 to 2500 | 500 to 2500 |
| 50 to 500 | Cc1sc2c(c1C)C(c1ccc(N3CCC(O)(CN4CCN(c5cc(F)c([C@H]6c7ccc(O)cc7CC[C@H]6c6ccccc6)cc5F)CC4)CC3)cc1F)=N[C@@H](C)c1nnc(C)n1-2 [III-303] |  |  | 50 to 500 | 50 to 500 |
| < 50 | Cc1sc2c(c1C)C(c1ccc(OCC3CN(CC4CCN(c5ccc([C@@H]6c7ccc(O)cc7CC[C@@H]6c6ccccc6)cc5)CC4)C3)cc1)=N[C@@H](C)c1nnc(C)n1-2 [III-70] |  |  | < 50 | 50 to 500 |
| 50 to 500 | Cc1cc(N2CCN(CC3(O)CCN(c4ccc(C5=N[C@@H](C)c6nnc(C)n6-c6sc(C)c(C)c65)cc4)CC3)CC2)ccc1[C@@H]1c2ccc(O)cc2CC[C@@H]1c1ccc(F)cc1 [III-298] |  |  | 50 to 500 | 50 to 500 |
| < 50 | Cc1sc2c(c1C)C(c1ccc(N3CC4(CCC(O)(CN5CCC(c6ccc([C@@H]7c8ccc(O)cc8CC[C@@H]7c7ccccc7)cc6)CC5)CC4)C3)cc1)=N[C@@H](C)c1nnc(C)n1-2 [III-206] |  |  | < 50 | 500 to 2500 |
| 50 to 500 | Cc1sc2c(c1C)C(c1ccc(N3CC(F)(CN4CCC(CC5CN(c6ccc([C@@H]7c8ccc(O)cc8CC[C@@H]7c7ccccc7)cc6)C5)CC4)C3)cc1)=N[C@@H](C)c1nnc(C)n1-2 [III-157] |  |  | < 50 | 500 to 2500 |
| 50 to 500 | Cc1sc2c(c1C)C(c1ccc(N3CC(CN4CC(COc5ccc([C@@H]6c7ccc(O)cc7CC[C@@H]6c6ccccc6)cc5)C4)C3)cc1)=N[C@@H](C)c1nnc(C)n1-2 [III-101] |  |  | < 50 | 50 to 500 |
| < 50 | Cc1sc2c(c1C)C(c1ccc(N3CC(CN4CCC(O)(CN5CC(c6ccc([C@@H]7c8ccc(O)cc8CC[C@@H]7c7ccccc7)cc6)C5)CC4)C3)cc1)=N[C@@H](Cc1ncco1)c1nnc(C)n1-2 [III-180] |  |  | < 50 | 50 to 500 |
| 50 to 500 | Cc1sc2c(c1C)C(c1ccc(N3CCCC4(CCN(CCOc5ccc([C@@H]6c7ccc(O)cc7CC[C@@H]6c6ccccc6)cc5)CC4)C3)cc1)=NC(Cc1ncco1)c1nnc(C)n1-2 (stereo partly drawn) [III-55] |  |  | 50 to 500 | 500 to 2500 |
| 50 to 500 | Cc1sc2c(c1C)C(c1ccc(N3CCC(O)(CN4CCN(c5ccc([C@@H]6c7ccc(O)cc7CC[C@@H]6c6ccc(F)c(F)c6)c(F)c5)CC4)CC3)cc1)=N[C@@H](C)c1nnc(C)n1-2 [III-270] |  |  | < 50 | 500 to 2500 |
| 50 to 500 | Cc1sc2c(c1C)C(c1ccc(N3CCC4(CCN(CC5CCN(c6ccc([C@@H]7c8ccc(O)cc8CC[C@@H]7c7ccccc7)cc6)CC5)CC4)C3)cc1)=N[C@@H](C)c1nnc(C)n1-2 [III-190] |  |  | < 50 | 500 to 2500 |
| 50 to 500 | Cc1sc2c(c1C)C(c1ccc(NCC3CCN(CCOc4ccc([C@@H]5c6ccc(O)cc6CC[C@@H]5c5ccccc5)cc4)C3)cc1)=NC(Cc1ncco1)c1nnc(C)n1-2 (stereo partly drawn) [III-57] |  |  | 50 to 500 | 50 to 500 |
| < 50 | Cc1sc2c(c1C)C(c1ccc(NCCN3CCN(CCOc4ccc([C@H]5c6ccc(O)cc6CC[C@H]5c5ccccc5)cc4)CC3)cc1)=N[C@@H](Cc1ncco1)c1nnc(C)n1-2 [III-104] |  |  | < 50 | 50 to 500 |
| > 2500 | Cc1sc2c(c1C)C(c1ccc(N3CCC(O)(CN4CCN(c5ccc([C@H]6c7ccc(C(=O)O)cc7CC[C@H]6c6ccccc6)cc5)CC4)CC3)cc1)=N[C@H](Cc1ncco1)c1nnc(C)n1-2 [III-198] |  |  | > 2500 | > 2500 |
| 50 to 500 | Cc1sc2c(c1C)C(c1ccc(C3CN(C(=O)C4CCN(c5ccc([C@@H]6c7ccc(O)cc7CC[C@@H]6c6ccccc6)cc5)CC4)C3)cc1)=N[C@@H](C)c1nnc(C)n1-2 [III-142] |  |  | 50 to 500 | 50 to 500 |
| < 50 | Cc1sc2c(c1C)C(c1ccc(N3CC(CN4CCC(c5ccc([C@@H]6c7ccc(O)cc7CC[C@@H]6c6ccccc6)cc5)CC4)C3)cc1)=N[C@@H](C)c1nnc(C)n1-2 [III-148] |  |  | < 50 | 500 to 2500 |
| < 50 | Cc1sc2c(c1C)C(c1ccc(N3CC(CC4CCN(C(=O)C5CN(c6ccc([C@@H]7c8ccc(O)cc8CC[C@@H]7c7ccccc7)cc6)C5)CC4)C3)cc1)=N[C@@H](C)c1nnc(C)n1-2 [III-135] |  |  | < 50 | 500 to 2500 |

The next lines start with the compound.

| SMILES | GI50 [2] [nM] | GI50 [1, 4] [nM] | GI50 [3, 5] [nM] | GI50 [1, 6] [nM] | GI50 [3, 7] [nM] |
| --- | --- | --- | --- | --- | --- |
| Cc1sc2c(c1C)C(c1ccc(C#CC3CC4(CCN(CCOc5ccc(C(=O)c6c(-c7ccc(O)cc7)sc7cc(O)ccc67)cc5)CC4)C3)cc1)=N[C@@H](C)c1nnc(C)n1-2 [I-29, (S)-(6-hydroxy-2-(4-hydroxyphenyl)benzo[b]thiophen-3-yl)(4-(2-(2-((4-(2,3,6,9-tetramethyl-6H-thieno[3,2-f][1,2,4]triazolo[4,3-a][1,4]diazepin-4-yl)phenyl)ethynyl)-7-azaspiro[3.5]nonan-7-yl)ethoxy)phenyl)methanone] | < 50 | < 50 | < 50 |  |  |
| Cc1sc2c(c1C)C(c1ccc(C#CC3CC4(CCN(CCOc5ccc(C(=O)c6c(-c7ccc(O)cc7)sc7cc(O)ccc67)cc5)CC4)C3)cc1)=N[C@@H](Cc1ncco1)c1nnc(C)n1-2 [I-20, (S)-(6-hydroxy-2-(4-hydroxyphenyl)benzo[b]thiophen-3-yl)(4-(2-(2-((4-(2,3,9-trimethyl-6-(oxazol-2-ylmethyl)-6H-thieno[3,2-f][1,2,4]triazolo[4,3-a][1,4]diazepin-4-yl)phenyl)ethynyl)-7-azaspiro[3.5]nonan-7-yl)ethoxy)phenyl) methanone] | < 50 | < 50 | < 50 |  |  |
| Cc1sc2c(c1C)C(c1ccc(N3C4CCC3CN(CCOc3ccc([C@@H]5c6ccc(O)cc6CC[C@@H]5c5ccccc5)cc3)C4)cc1)=NC(Cc1ncco1)c1nnc(C)n1-2 (stereo partly drawn) [III-31] | 50 to 500 |  |  | > 2500 | 50 to 500 |
| Cc1sc2c(c1C)C(c1ccc(N3CC(CN4CCN(CC5CN(c6ccc(C7=C(c8ccc(F)cc8F)CCCc8cc(C(=O)O)ccc87)cc6)C5)CC4)C3)cc1)=N[C@@H](C)c1nnc(C)n1-2 [IV-25] | < 50 |  |  | < 50 | 50 to 500 |
| Cc1sc2c(c1C)C(c1ccc(N3CCC(CN4CCN(c5ccc(C6=C(c7ccccc7Cl)CCCc7cc(O)ccc76)cc5)CC4)CC3)cc1)=N[C@@H](C)c1nnc(C)n1-2 [IV-40] | < 50 |  |  | < 50 | > 2500 |
| Cc1sc2c(c1C)C(c1ccc(CC3CC4(CCN(CCOc5ccc(C(=O)c6c(-c7ccc(O)cc7)sc7cc(O)ccc67)cc5)CC4)C3)cc1)=N[C@@H](Cc1ncco1)c1nnc(C)n1-2 [I-30, (S)-(6-hydroxy-2-(4-hydroxyphenyl)benzo[b]thiophen-3-yl)(4-(2-(2-(4-(2,3,9-trimethyl-6-(oxazol-2-ylmethyl)-6H-thieno[3,2-f][1,2,4]triazolo[4,3-a][1,4]diazepin-4-yl)benzyl)-7-azaspiro[3.5]nonan-7-yl)ethoxy)phenyl)methanone] | < 50 | < 50 | < 50 |  |  |
| CC1=C(c2c(F)cc(F)cc2F)[C@@H](c2ccc(OCCN3CCC[C@]4(CCN(c5ccc(C6=N[C@@H](C)c7nnc(C)n7-c7sc(C)c(C)c76)cc5)C4)C3)cc2)Oc2ccc(O)cc21 [V-9] | 50 to 500 |  |  | > 2500 | 500 to 2500 |
| Cc1sc2c(c1C)C(c1ccc(OCCCCC3CCN(c4ccc(C(=O)c5c(-c6ccc(Br)cc6)sc6cc(O)ccc56)cc4)CC3)cc1)=N[C@@H](Cc1ncco1)c1nnc(C)n1-2 [I-14, (S)-(2-(4-bromophenyl)-6-hydroxybenzo[b]thiophen-3-yl)(4-(4-(4-(4-(2,3,9-trimethyl-6-(oxazol-2-ylmethyl)-6H-thieno[3,2-f][1,2,4]triazolo[4,3-a][1,4]diazepin-4-yl)phenoxy)butyl)piperidin-1-yl)phenyl)methanone] | 500 to 2500 | 50 to 500 | > 2500 |  |  |
| Cc1sc2c(c1C)C(c1ccc(N3CC4(CCC(CN5CCC(c6ccc(C7=C(c8ccccc8)CCCc8cc(C(=O)O)ccc87)cc6)CC5)CC4)C3)cc1)=N[C@@H](C)c1nnc(C)n1-2 [IV-44] | < 50 |  |  | < 50 | 500 to 2500 |
| Cc1sc2c(c1C)C(c1ccc(N3CCC(O)(CN4CCN(c5ccc(C6=C(c7cccc(Cl)c7)CCCc7cc(C(=O)O)ccc76)cc5)CC4)CC3)cc1)=N[C@@H](C)c1nnc(C)n1-2 [IV-51] | < 50 |  |  | < 50 | 500 to 2500 |
| Cc1sc2c(c1C)C(c1ccc(N3CC4(CC(CN5CCN(c6ccc(C7=C(c8ccccc8)CCCc8cc(O)ccc87)cc6)CC5)C4)C3)cc1)=N[C@@H](C)c1nnc(C)n1-2 [IV-50] | < 50 |  |  | < 50 | 500 to 2500 |
| Cc1sc2c(c1C)C(c1ccc(N3CCC(O)(CN4CCN(c5ccc(C6=C(c7ccc(Cl)cc7Cl)CCCc7cc(C(=O)O)ccc76)cc5)CC4)CC3)cc1)=N[C@@H](C)c1nnc(C)n1-2 [IV-9] | < 50 |  |  | < 50 | 500 to 2500 |
